Test results: PubChem BioAssay AID2060512 (Molecular Pharmacology Branch, DTP, NCI, 2025)

Tested on: 186277-243-T-J2-PDC complex spheroid viability
Experiment: Anticancer human tumor 186277-243-T-J2-PDC patient-derived colon adenocarcinoma cell line growth inhibition [GQUAD]
Details: for IC50: curve of first compound; for viability, T/C: stronger effect = lower value
How it was run: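 Viability of tumor cells grown as complex spheroids with endothelial and stromal cells, exposed to drug combinations. Top concentration at or near clinical Cmax (else 10 microM), diluted in half-log increments.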

[1] = second compound 0.0316 µM, first compound 0.0316 µM
[2] = second compound 0.0316 µM, first compound 0.1 µM
[3] = second compound 0.0316 µM, first compound 0.316 µM
[4] = second compound 0.0316 µM, first compound 1 µM
[5] = second compound 0.0316 µM, first compound 3.16 µM
[6] = second compound 0.0316 µM, first compound 10 µM
[7] = second compound 0.1 µM, first compound 0.0316 µM
[8] = second compound 0.1 µM, first compound 0.1 µM
[9] = second compound 0.1 µM, first compound 0.316 µM
[10] = second compound 0.1 µM, first compound 1 µM
[11] = second compound 0.1 µM, first compound 3.16 µM
[12] = second compound 0.1 µM, first compound 10 µM
[13] = second compound 0.316 µM, first compound 0.0316 µM
[14] = second compound 0.316 µM, first compound 0.1 µM
[15] = second compound 0.316 µM, first compound 0.316 µM
[16] = second compound 0.316 µM, first compound 1 µM
[17] = second compound 0.316 µM, first compound 3.16 µM
[18] = second compound 0.316 µM, first compound 10 µM
[19] = second compound 1 µM, first compound 0.0316 µM
[20] = second compound 1 µM, first compound 0.1 µM
[21] = second compound 1 µM, first compound 0.316 µM
[22] = second compound 1 µM, first compound 1 µM
[23] = second compound 1 µM, first compound 3.16 µM
[24] = second compound 1 µM, first compound 10 µM
[25] = second compound 3.16 µM, first compound 0.0316 µM
[26] = second compound 3.16 µM, first compound 0.1 µM
[27] = second compound 3.16 µM, first compound 0.316 µM
[28] = second compound 3.16 µM, first compound 1 µM
[29] = second compound 3.16 µM, first compound 3.16 µM
[30] = second compound 3.16 µM, first compound 10 µM
[31] = second compound 10 µM, first compound 0.0316 µM
[32] = second compound 10 µM, first compound 0.1 µM
[33] = second compound 10 µM, first compound 0.316 µM
[34] = second compound 10 µM, first compound 1 µM
[35] = second compound 10 µM, first compound 3.16 µM
[36] = second compound 10 µM, first compound 10 µM
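Wherever viability, T/C is given: 100% = DMSO vehicle control viability.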

For C=CCn1c(=O)c2cnc(Nc3ccc(N4CCN(C)CC4)cc3)nc2n1-c1cccc(C(C)(C)O)n1 + Cc1[nH]c2ccc(F)cc2c1-c1nc2c3cccnc3c3ncccc3c2[nH]1, the IC50 (second compound 0.0316 µM) was 174 nM, the IC50 (second compound 0.1 µM) was 180 nM and the IC50 (second compound 0.316 µM) was 179 nM. It also gave an IC50 (second compound 1 µM) of 179 nM, an IC50 (second compound 3.16 µM) of 142 nM and an IC50 (second compound 10 µM) of 138 nM. The viability, T/C [1] was 97.9%, the viability, T/C [2] was 83.8% and the viability, T/C [3] was 13.2%. For the same molecule, the viability, T/C [4] was 7.62%, the viability, T/C [5] was 8.21% and the viability, T/C [6] was 8.87%. The viability, T/C [7] was 112%, the viability, T/C [8] was 87.8% and the viability, T/C [9] was 13.6%. For the same molecule, the viability, T/C [10] was 9.07%, the viability, T/C [11] was 9.3% and the viability, T/C [12] was 9.89%. The viability, T/C [13] was 108%, the viability, T/C [14] was 88% and the viability, T/C [15] was 12.7%. For the same molecule, the viability, T/C [16] was 8.61%, the viability, T/C [17] was 9.09% and the viability, T/C [18] was 11.5%. The viability, T/C [19] was 97.1%, the viability, T/C [20] was 87.4% and the viability, T/C [21] was 13.7%. It also gave a viability, T/C [22] of 8.91%, a viability, T/C [23] of 9.37% and a viability, T/C [24] of 10.9%. The viability, T/C [25] was 96.4%, the viability, T/C [26] was 67.2% and the viability, T/C [27] was 11.1%. It also gave a viability, T/C [28] of 8.17%, a viability, T/C [29] of 8.58% and a viability, T/C [30] of 10.8%. It also gave a viability, T/C [31] of 89.9%, a viability, T/C [32] of 64.6% and a viability, T/C [33] of 12.9%. For the same molecule, the viability, T/C [34] was 8.07%, the viability, T/C [35] was 8.03% and the viability, T/C [36] was 10.3%.

COc1ncnc(C2CC2)c1-c1ncc2cnn(Cc3ccc(-c4nc(C(F)(F)F)cn4C(C)C)cc3)c2n1 + Cc1[nH]c2ccc(F)cc2c1-c1nc2c3cccnc3c3ncccc3c2[nH]1 gave an IC50 (second compound 0.0316 µM) greater than 10000 nM, an IC50 (second compound 0.1 µM) greater than 10000 nM and an IC50 (second compound 0.316 µM) greater than 10000 nM. For the same molecule, the IC50 (second compound 1 µM) was greater than 10000 nM, the IC50 (second compound 3.16 µM) was greater than 10000 nM and the IC50 (second compound 10 µM) was greater than 10000 nM. The viability, T/C [1] was 116%, the viability, T/C [2] was 91.6% and the viability, T/C [3] was 95.1%. The viability, T/C [4] was 84.4%, the viability, T/C [5] was 111% and the viability, T/C [6] was 97.4%. For the same molecule, the viability, T/C [7] was 87.5%, the viability, T/C [8] was 98.7% and the viability, T/C [9] was 99.8%. It also gave a viability, T/C [10] of 95.2%, a viability, T/C [11] of 112% and a viability, T/C [12] of 86.2%. It also gave a viability, T/C [13] of 104%, a viability, T/C [14] of 95.7% and a viability, T/C [15] of 94.2%. It also gave a viability, T/C [16] of 111%, a viability, T/C [17] of 108% and a viability, T/C [18] of 96%. It also gave a viability, T/C [19] of 92.5%, a viability, T/C [20] of 105% and a viability, T/C [21] of 107%. It also gave a viability, T/C [22] of 93.9%, a viability, T/C [23] of 116% and a viability, T/C [24] of 104%. The viability, T/C [25] was 103%, the viability, T/C [26] was 115% and the viability, T/C [27] was 97.3%. It also gave a viability, T/C [28] of 102%, a viability, T/C [29] of 99.9% and a viability, T/C [30] of 89.9%. The viability, T/C [31] was 105%, the viability, T/C [32] was 101% and the viability, T/C [33] was 99.1%. For the same molecule, the viability, T/C [34] was 94.4%, the viability, T/C [35] was 113% and the viability, T/C [36] was 97%.

With CC1COCCN1c1cc(-c2ccnn2C)c2ccnc(-c3ccn[nH]3)c2n1 (stereo unspecified) + Cc1cnc(CNC(=O)c2c(=O)c3ccc(N4CCCN(C)CC4)nc3n3c2sc2ccccc23)cn1 the IC50 (second compound 0.0316 µM) was less than 31.6 nM, the IC50 (second compound 0.1 µM) was less than 31.6 nM and the IC50 (second compound 0.316 µM) was less than 31.6 nM. The IC50 (second compound 1 µM) was less than 31.6 nM, the IC50 (second compound 3.16 µM) was less than 31.6 nM and the IC50 (second compound 10 µM) was less than 31.6 nM. For the same molecule, the viability, T/C [1] was 34.5%, the viability, T/C [2] was 16.1% and the viability, T/C [3] was 9.69%. For the same molecule, the viability, T/C [4] was 5.33%, the viability, T/C [5] was 6.04% and the viability, T/C [6] was 5.15%. It also gave a viability, T/C [7] of 46.1%, a viability, T/C [8] of 22.2% and a viability, T/C [9] of 11.5%. It also gave a viability, T/C [10] of 6.17%, a viability, T/C [11] of 6.04% and a viability, T/C [12] of 5.5%. It also gave a viability, T/C [13] of 46.5%, a viability, T/C [14] of 30% and a viability, T/C [15] of 21%. For the same molecule, the viability, T/C [16] was 10.3%, the viability, T/C [17] was 6.67% and the viability, T/C [18] was 5.76%. The viability, T/C [19] was 35.3%, the viability, T/C [20] was 31.9% and the viability, T/C [21] was 24.9%. The viability, T/C [22] was 17.1%, the viability, T/C [23] was 10.4% and the viability, T/C [24] was 5.91%. For the same molecule, the viability, T/C [25] was 32.1%, the viability, T/C [26] was 28.4% and the viability, T/C [27] was 26.2%. The viability, T/C [28] was 17.8%, the viability, T/C [29] was 13.2% and the viability, T/C [30] was 6.37%. It also gave a viability, T/C [31] of 27.9%, a viability, T/C [32] of 26% and a viability, T/C [33] of 24.6%. For the same molecule, the viability, T/C [34] was 17.3%, the viability, T/C [35] was 12% and the viability, T/C [36] was 6.6%.
